Data taken from ChEMBL document CHEMBL3232824, “New synthesis of 3-(β-D-glucopyranosyl)-5-substituted-1,2,4-triazoles, nanomolar inhibitors of glycogen phosphorylase” (Eur J Med Chem, 2014).
The source made the active and inactive calls. No cut-off for these calls is given here.

What follows are compounds tested against T1, Glycogen phosphorylase, muscle form (Oryctolagus cuniculus) (UniProt P00489) (assay: Inhibition of rabbit muscle glycogen phosphorylase b at 625 uM).
T1 sequence (whole entry): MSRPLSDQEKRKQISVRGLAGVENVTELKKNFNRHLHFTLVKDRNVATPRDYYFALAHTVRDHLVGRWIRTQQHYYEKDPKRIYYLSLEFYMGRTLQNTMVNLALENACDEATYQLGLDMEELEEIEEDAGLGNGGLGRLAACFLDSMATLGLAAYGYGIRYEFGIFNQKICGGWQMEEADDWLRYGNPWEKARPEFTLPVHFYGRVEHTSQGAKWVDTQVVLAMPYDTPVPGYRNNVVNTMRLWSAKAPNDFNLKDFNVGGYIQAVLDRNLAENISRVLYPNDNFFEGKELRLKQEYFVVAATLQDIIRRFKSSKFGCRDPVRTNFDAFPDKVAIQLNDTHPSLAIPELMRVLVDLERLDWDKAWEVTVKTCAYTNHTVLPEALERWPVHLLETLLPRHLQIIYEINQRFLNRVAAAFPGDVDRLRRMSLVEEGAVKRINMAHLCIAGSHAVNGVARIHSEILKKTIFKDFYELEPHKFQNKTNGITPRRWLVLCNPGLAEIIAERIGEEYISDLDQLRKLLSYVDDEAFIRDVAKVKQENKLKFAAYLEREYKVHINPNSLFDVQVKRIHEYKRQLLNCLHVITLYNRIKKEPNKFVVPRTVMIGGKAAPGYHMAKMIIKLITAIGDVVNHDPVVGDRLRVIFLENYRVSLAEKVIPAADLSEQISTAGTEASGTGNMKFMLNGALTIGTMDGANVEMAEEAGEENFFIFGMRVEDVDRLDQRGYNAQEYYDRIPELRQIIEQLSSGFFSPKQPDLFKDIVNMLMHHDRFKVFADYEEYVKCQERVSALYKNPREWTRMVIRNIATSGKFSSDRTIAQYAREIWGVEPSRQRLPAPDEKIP

| inhibition | Compound |
| --- | --- |
| inactive | O=[N+]([O-])c1cc(-c2n[nH]c([C@@H]3O[C@H](CO)[C@@H](O)[C@H](O)[C@H]3O)n2)cc([N+](=O)[O-])c1 |
| inactive | CC(C)(C)c1n[nH]c([C@@H]2O[C@H](CO)[C@@H](O)[C@H](O)[C@H]2O)n1 |
| inactive | O=C(O)c1ccc(-c2n[nH]c([C@@H]3O[C@H](CO)[C@@H](O)[C@H](O)[C@H]3O)n2)cc1 |

The compounds below were run against T2, Glycogen phosphorylase, muscle form (Oryctolagus cuniculus, UniProt P00489) (assay: not given).
T2 sequence (P00489 whole entry): T1 sequence (whole entry)

| Ki | Compound |
| --- | --- |
| 707 µM | OC[C@H]1O[C@@H](c2nc(-c3ccccn3)n[nH]2)[C@H](O)[C@@H](O)[C@@H]1O |
| 12 µM | OC[C@H]1O[C@@H](c2nc(-c3ccc4ccccc4c3)no2)[C@H](O)[C@@H](O)[C@@H]1O |
| 1.7 µM | Cc1ccc(-c2n[nH]c([C@@H]3O[C@H](CO)[C@@H](O)[C@H](O)[C@H]3O)n2)cc1 |
| 33.5 µM | O=[N+]([O-])c1ccc(-c2n[nH]c([C@@H]3O[C@H](CO)[C@@H](O)[C@H](O)[C@H]3O)n2)cc1 |
| 0.67 µM | Nc1ccc(-c2n[nH]c([C@@H]3O[C@H](CO)[C@@H](O)[C@H](O)[C@H]3O)n2)cc1 |
| 499 µM | Cc1n[nH]c([C@@H]2O[C@H](CO)[C@@H](O)[C@H](O)[C@H]2O)n1 |
| 27 µM | OC[C@H]1O[C@@H](c2nc(-c3ccccc3)no2)[C@H](O)[C@@H](O)[C@@H]1O |
| 39.7 µM | Cc1cc(C)cc(-c2n[nH]c([C@@H]3O[C@H](CO)[C@@H](O)[C@H](O)[C@H]3O)n2)c1 |
| 14 µM | Nc1cc(N)cc(-c2n[nH]c([C@@H]3O[C@H](CO)[C@@H](O)[C@H](O)[C@H]3O)n2)c1 |
| 778 µM | CC(C)(C)c1ccc(-c2n[nH]c([C@@H]3O[C@H](CO)[C@@H](O)[C@H](O)[C@H]3O)n2)cc1 |
| 1.9 µM | COc1ccc(-c2n[nH]c([C@@H]3O[C@H](CO)[C@@H](O)[C@H](O)[C@H]3O)n2)cc1 |
| 2.1 µM | OC[C@H]1O[C@@H](c2nc3cc4ccccc4cc3[nH]2)[C@H](O)[C@@H](O)[C@@H]1O |
| 111 µM | OC[C@H]1O[C@@H](c2nc(-c3ccc(C(F)(F)F)cc3)n[nH]2)[C@H](O)[C@@H](O)[C@@H]1O |
| 2.9 µM | OC[C@H]1O[C@@H](c2nc(-c3ccc(O)cc3)n[nH]2)[C@H](O)[C@@H](O)[C@@H]1O |

What follows are compounds tested against T1, Glycogen phosphorylase, muscle form (Oryctolagus cuniculus) (assay: Inhibition of rabbit muscle glycogen phosphorylase b).

| inhibition | Compound |
| --- | --- |
| inactive | Cc1nc([C@@H]2O[C@H](CO)[C@@H](O)[C@H](O)[C@H]2O)no1 |
